Entries after “also recorded” stand apart in the source; their conditions may differ.
Tests used:
[1] = test system: spontaneously hypertensive rats; assay: Effect on arterial pressure in spontaneously hypertensive rats, single administration; type: in vivo; conditions: for hypotensive effect by the 6th hour, comparison in words: compound of the present invention vs Nifedipine
in vivo = conditions: mouse, in vivo, ip
Experimental: (§1) The mean lethal dose (LD50) was determined by the Litchfield and Wilcoxon method.

white nondescript mice = assay: in vivo; conditions: for toxicity in words: conclusion from Table 2
Experimental: as §1

[2] = literature, cited from earlier work
[3] = test system: spontaneously hypertensive rats; assay: Effect on heart rate in spontaneously hypertensive rats; type: in vivo; conditions: for effect on heart rate: 10 and 20 mg/kg, peroral, SHR
Experimental: (§2) In experiments on spontaneously hypertensive rats the compound according to the present invention upon a single administration (10 mg/kg in stomach) caused reduction of systolic arterial pressure. The maximum hypotensive effect (by 21 %) was observed by the 6-th hour after administration of the compound, after 24 hours the pressure was reduced by 17 % as compared to the initial value. A […] administration of the compound for 5 days in the dose of 10 mg/kg into the stomach caused the maximum reduction of the pressure (by 22 %) on the 6-th day, i.e., one day after discontinuation of administration of the compound. A reduced pressure was observed on the 3-rd day (by 10 %) after discontinuation of the administration.

[4] = test system: spontaneously hypertensive rats; assay: Effect on systolic arterial pressure in spontaneously hypertensive rats, administration for 5 days; type: in vivo; conditions: 10 mg/kg into the stomach for 5 days
Experimental: as §2

Solubility = type: physicochemical
[5] = Stability by UV spectrum (solid in the light; alcoholic solution)
[6] = 10 mg/kg, single administration in stomach

| SMILES | Hypotensive effect, %, after 48 hrs ([1]; 10 mg/kg) | Hypotensive effect, %, after 1 hr [1, 6] | Hypotensive effect, %, after 6 hrs [1, 6] | Hypotensive effect, %, after 24 hrs [1, 6] | LD50 at 240 h (in vivo) | toxicity in words (white nondescript mice) | hypotensive effect by the 6th hour, comparison in words [1] | hypotensive effect / systolic pressure 24 hours after administration, in words [1] | effect on heart rate [3] | other results |
| --- | --- | --- | --- | --- | --- | --- | --- | --- | --- | --- |
| COC(=O)C1=C(C)NC(C)=C(C(=O)OC)C1c1ccco1 [Analog, 2,6-dimethyl-3,5-dimethoxycarbonyl-4-(2'-furyl)-1,4-dihydropyridine] | 0% | 12% | 7% | 0% | 2900 mg/kg | low toxicity |  |  |  | hypotensive properties, comparison in words ([1]; vs the compound of the present invention): subtantially lower than those of the compound of the present invention; hypotensive activity compared with Nifedipine ([2]; vs Nifedipine): considerably lower than that of Nifedipine |
| COC(=O)C1=C(C)NC(C)=C(C(=O)OC)C1c1ccccc1[N+](=O)[O-] [Nifedipine, 2,6-dimethyl-3,5-dimethoxycarbonyl-4-(O-nitrophenyl)-1,4-dihydropyridine] | 0% | 34% | 23% | 0% |  |  | same hypotensive effect | systolic pressure returned to the initial level | tachycardia | hypotensive effect by the 1st hour, comparison in words ([1]; 1 hour after administration, vs the compound of the present invention): superior to the compound of the present invention; hypotensive and coronarodilating effects [2]: hypotensive and coronarodilating effects |
| COC(=O)C1=C(C)NC(C)=C(C(=O)OC)C1c1ccc([Si](C)(C)C)o1 [Of this invention, 2,6-dimethyl-3,5-dimethoxycarbonyl-4-(5'-trimethylsilyl-2'-furyl)-1,4-dihydropyridine] |  | 13% | 21% | 17% | > 1000 mg/kg | low toxicity as compared to Nifedipine | same hypotensive effect | still produced the hypotensive effect | either lowers the heart rate or does not change it | Hypotensive effect, %, after 6 hrs ([1]; 20 mg/kg): 30%; Hypotensive effect, %, after 24 hrs ([1]; 20 mg/kg): 39%; Hypotensive effect, %, after 48 hrs ([1]; 20 mg/kg): 28%; duration of hypotensive effect, in words ([1]; vs Nifedipine and/or analog, listed as compound according to the present invention): superior over Nifedipine as regards the duration of its effect; also recorded: more lasting hypotensive effect than the analog and Nifedipine; reduced pressure on the 3rd day after discontinuation ([4]; 3rd day after discontinuation): 10%; maximum reduction of the pressure ([4]; on the 6th day (one day after discontinuation)): 22%; effect on heart rate, comparison in words ([3]; vs Nifedipine): less pronounced effect on the heart rate; death of the mice (white nondescript mice; doses of up to 1,000 mg/kg, intraperitoneal): did not cause death of the mice; solubility in methanol, ethanol, chloroform, acetone (Solubility; methanol, ethanol, chloroform, acetone): well soluble; solubility in water (Solubility; water): substantially insoluble; period during which UV spectrum remained unchanged in alcoholic solution ([5]; alcoholic solution, 5×10^-5 mol): 6 months; stability in the crystalline state and as solutions ([5]; crystalline state and solutions): stable; UV spectrum upon storage of the solid in the light ([5]; solid, in the light, within a year's period): does not change its UV spectrum within a year's period |
